Patent US12679843B2, “Pyrrolopyrimidine amines as complement inhibitors” (BioCryst Pharmaceuticals, Inc., priority 2020, dated 2026)

target: Factor D (Homo sapiens, UniProt P00746); assay: Factor D esterolytic assay (Z-Lys-SBzl thioester substrate, DTNB, 405 nm); format: biochemical; conditions: substrate Z-Lys-SBzl 1.29 mM, 100 mM HEPES, 500 mM NaCl, pH 7.5, 10% DMSO, tested a minimum of three times
Procedure, shortened: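 Run in pH 7.5 HEPES (100 mM) with 500 mM NaCl and 10% DMSO, with compound preincubated at room temperature or not before adding 1.29 mM Z-Lys-SBzl. Free thiol released by Factor D reacts with DTNB, and rate is followed at 405 nm minus 690 nm over 600 s. IC50 derives from rate-based inhibition, minimum three replicates.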

Chain of Factor D (P00746 26-253): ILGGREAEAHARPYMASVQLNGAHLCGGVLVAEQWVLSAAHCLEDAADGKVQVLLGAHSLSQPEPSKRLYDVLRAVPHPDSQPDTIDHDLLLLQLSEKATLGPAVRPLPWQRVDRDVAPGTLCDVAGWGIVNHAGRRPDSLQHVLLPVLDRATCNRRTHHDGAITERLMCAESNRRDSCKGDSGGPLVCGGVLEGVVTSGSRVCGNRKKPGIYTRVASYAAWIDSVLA

IC50, < 100 nM:
Cc1ccc(Br)nc1NC(=O)[C@@H]1C[C@@](C)(F)CN1C(=O)Cn1c2ncnc(N)c2c2cc(C(F)(F)F)cc(C)c21 [Compound 323a, (2S,4R)-1-(2-(4-amino-8-methyl-6-(trifluoromethyl)-9H-pyrimido[4,5-b]indol-9-yl)acetyl)-N-(6-bromo-3-methylpyridin-2-yl)-4-fluoro-4-methylpyrrolidine-2-carboxamide]
Cc1cc(C(F)(F)F)cc2c3c(N)ncnc3n(CC(=O)N3CCS[C@H]3C(=O)Nc3cccc(Br)n3)c12 [Compound 324a, (S)-3-(2-(4-amino-8-methyl-6-(trifluoromethyl)-9H-pyrimido[4,5-b]indol-9-yl)acetyl)-N-(6-bromopyridin-2-yl)thiazolidine-2-carboxamide]
Cc1cc(C(F)(F)F)cc2c3c(N)ncnc3n(CC(=O)N3C[C@H](F)C[C@H]3C(=O)Nc3cncc(Cl)n3)c12 [Compound 325c, (2S,4R)-1-(2-(4-amino-8-methyl-6-(trifluoromethyl)-9H-pyrimido[4,5-b]indol-9-yl)acetyl)-N-(6-chloropyrazin-2-yl)-4-fluoropyrrolidine-2-carboxamide]
Cc1cc(C(F)(F)F)cc2c3c(N)ncnc3n(CC(=O)N3[C@@H]4C[C@@H]4C[C@H]3C(=O)Nc3cncc(Cl)n3)c12 [Compound 326c, (1R,3S,5R)-2-(2-(4-amino-8-methyl-6-(trifluoromethyl)-9H-pyrimido[4,5-b]indol-9-yl)acetyl)-N-(6-chloropyrazin-2-yl)-2-azabicyclo[3.1.0]hexane-3-carboxamide]
Cc1cc(C(F)(F)F)cc2c3c(N)ncnc3n(CC(=O)N3[C@H](C(=O)Nc4cncc(Cl)n4)C[C@@]4(C)C[C@@H]34)c12 [Compound 327c, (1R,3S,5R)-2-(2-(4-amino-8-methyl-6-(trifluoromethyl)-9H-pyrimido[4,5-b]indol-9-yl)acetyl)-N-(6-chloropyrazin-2-yl)-5-methyl-2-azabicyclo[3.1.0]hexane-3-carboxamide]
COc1cc2c(cc1C)c1c(N)ncnc1n2CC(=O)N1[C@@H]2C[C@@H]2C[C@H]1C(=O)Nc1cccc(Br)n1 [Compound 328f, (1R,3S,5R)-2-(2-(4-amino-7-methoxy-6-methyl-9H-pyrimido[4,5-b]indol-9-yl)acetyl)-N-(6-bromopyridin-2-yl)-2-azabicyclo[3.1.0]hexane-3-carboxamide]
COc1cc2c(cc1C)c1c(N)ncnc1n2CC(=O)N1[C@H](C(=O)Nc2cccc(Br)n2)C[C@@]2(C)C[C@@H]12 [Compound 329a, (1R,3S,5R)-2-(2-(4-amino-7-methoxy-6-methyl-9H-pyrimido[4,5-b]indol-9-yl)acetyl)-N-(6-bromopyridin-2-yl)-5-methyl-2-azabicyclo[3.1.0]hexane-3-carboxamide]
COc1cc2c3c(N)ncnc3n(CC(=O)N3[C@@H]4C[C@@H]4C[C@H]3C(=O)Nc3cccc(Br)n3)c2cc1F [Compound 330f, (1R,3S,5R)-2-(2-(4-amino-7-fluoro-6-methoxy-9H-pyrimido[4,5-b]indol-9-yl)acetyl)-N-(6-bromopyridin-2-yl)-2-azabicyclo[3.1.0]hexane-3-carboxamide]
COc1cc2c3c(N)ncnc3n(CC(=O)N3[C@H](C(=O)Nc4cccc(Br)n4)C[C@@]4(C)C[C@@H]34)c2cc1F [Compound 331a, (1R,3S,5R)-2-(2-(4-amino-7-fluoro-6-methoxy-9H-pyrimido[4,5-b]indol-9-yl)acetyl)-N-(6-bromopyridin-2-yl)-5-methyl-2-azabicyclo[3.1.0]hexane-3-carboxamide]
Cc1ccc(Cl)nc1NC(=O)[C@@H]1C[C@@]2(C)C[C@H]2N1C(=O)Cn1c2ncnc(N)c2c2cc(C(F)(F)F)cc(C)c21 [Compound 332c, (1R,3S,5R)-2-(2-(4-amino-8-methyl-6-(trifluoromethyl)-9H-pyrimido[4,5-b]indol-9-yl)acetyl)-N-(6-chloro-3-methylpyridin-2-yl)-5-methyl-2-azabicyclo[3.1.0]hexane-3-carboxamide]
Cc1cc(F)c(Br)nc1NC(=O)[C@@H]1C[C@@]2(C)C[C@H]2N1C(=O)Cn1c2ncnc(N)c2c2cc(C(F)(F)F)cc(C)c21 [Compound 333c, (1R,3S,5R)-2-(2-(4-amino-8-methyl-6-(trifluoromethyl)-9H-pyrimido[4,5-b]indol-9-yl)acetyl)-N-(6-bromo-5-fluoro-3-methylpyridin-2-yl)-5-methyl-2-azabicyclo[3.1.0]hexane-3-carboxamide]
C[C@@]12C[C@@H](C(=O)Nc3cccc(Br)n3)N(C(=O)Cn3c4ccc(OC(F)(F)F)cc4c4c(N)ncnc43)[C@@H]1C2 [Compound 334a, (1R,3S,5R)-2-(2-(4-amino-6-(trifluoromethoxy)-9H-pyrimido[4,5-b]indol-9-yl)acetyl)-N-(6-bromopyridin-2-yl)-5-methyl-2-azabicyclo[3.1.0]hexane-3-carboxamide]
Nc1ncnc2c1c1cc(-c3ccc(F)cc3)ccc1n2CC(=O)N1[C@@H]2C[C@@H]2C[C@H]1C(=O)Nc1cccc(Br)n1 [Compound 335c, (1R,3S,5R)-2-(2-(4-amino-6-(4-fluorophenyl)-9H-pyrimido[4,5-b]indol-9-yl)acetyl)-N-(6-bromopyridin-2-yl)-2-azabicyclo[3.1.0]hexane-3-carboxamide]
C[C@@]12C[C@@H](C(=O)Nc3cccc(Br)n3)N(C(=O)Cn3c4ccc(-c5ccco5)cc4c4c(N)ncnc43)[C@@H]1C2 [Compound 336c, (1R,3S,5R)-2-(2-(4-amino-6-(furan-2-yl)-9H-pyrimido[4,5-b]indol-9-yl)acetyl)-N-(6-bromopyridin-2-yl)-5-methyl-2-azabicyclo[3.1.0]hexane-3-carboxamide]
C[C@@]12C[C@@H](C(=O)Nc3cccc(Br)n3)N(C(=O)Cn3c4ccc(-c5ccc(F)cc5)cc4c4c(N)ncnc43)[C@@H]1C2 [Compound 337a, (1R,3S,5R)-2-(2-(4-amino-6-(4-fluorophenyl)-9H-pyrimido[4,5-b]indol-9-yl)acetyl)-N-(6-bromopyridin-2-yl)-5-methyl-2-azabicyclo[3.1.0]hexane-3-carboxamide]
C[C@@]12C[C@@H](C(=O)Nc3cccc(Br)n3)N(C(=O)Cn3c4ccc(C5CCCC5)cc4c4c(N)ncnc43)[C@@H]1C2 [Compound 338e, (1R,3S,5R)-2-(2-(4-amino-6-cyclopentyl-9H-pyrimido[4,5-b]indol-9-yl)acetyl)-N-(6-bromopyridin-2-yl)-5-methyl-2-azabicyclo[3.1.0]hexane-3-carboxamide]
COCc1ccc2c(c1)c1c(N)ncnc1n2CC(=O)N1[C@@H]2C[C@@H]2C[C@H]1C(=O)Nc1cccc(Br)n1 [Compound 339g, (1R,3S,5R)-2-(2-(4-amino-6-(methoxymethyl)-9H-pyrimido[4,5-b]indol-9-yl)acetyl)-N-(6-bromopyridin-2-yl)-2-azabicyclo[3.1.0]hexane-3-carboxamide]
COCc1ccc2c(c1)c1c(N)ncnc1n2CC(=O)N1[C@H](C(=O)Nc2cccc(Br)n2)C[C@@]2(C)C[C@@H]12 [Compound 340a, (1R,3S,5R)-2-(2-(4-amino-6-(methoxymethyl)-9H-pyrimido[4,5-b]indol-9-yl)acetyl)-N-(6-bromopyridin-2-yl)-5-methyl-2-azabicyclo[3.1.0]hexane-3-carboxamide]
COc1cccc(-c2cc(C)c3c(c2)c2c(N)ncnc2n3CC(=O)N2[C@@H]3C[C@@H]3C[C@H]2C(=O)Nc2cccc(Br)n2)c1 [Compound 341c, (1R,3S,5R)-2-(2-(4-amino-6-(3-methoxyphenyl)-8-methyl-9H-pyrimido[4,5-b]indol-9-yl)acetyl)-N-(6-bromopyridin-2-yl)-2-azabicyclo[3.1.0]hexane-3-carboxamide]
COc1cccc(-c2cc(C)c3c(c2)c2c(N)ncnc2n3CC(=O)N2[C@H](C(=O)Nc3cccc(Br)n3)C[C@@]3(C)C[C@@H]23)c1 [Compound 342a, (1R,3S,5R)-2-(2-(4-amino-6-(3-methoxyphenyl)-8-methyl-9H-pyrimido[4,5-b]indol-9-yl)acetyl)-N-(6-bromopyridin-2-yl)-5-methyl-2-azabicyclo[3.1.0]hexane-3-carboxamide]
Cc1ncc(-c2cc(C)c3c(c2)c2c(N)ncnc2n3CC(=O)N2C[C@](C)(F)C[C@H]2C(=O)Nc2cccc(Cl)n2)cn1 [Compound 343a, (2S,4R)-1-(2-(4-amino-8-methyl-6-(2-methylpyrimidin-5-yl)-9H-pyrimido[4,5-b]indol-9-yl)acetyl)-N-(6-chloropyridin-2-yl)-4-fluoro-4-methylpyrrolidine-2-carboxamide]
COc1cc(Br)nc(NC(=O)[C@@H]2C[C@H]3C[C@H]3N2C(=O)Cn2c3ncnc(N)c3c3cc(C(F)(F)F)cc(C)c32)c1 [Compound 344c, (1R,3S,5R)-2-(2-(4-amino-8-methyl-6-(trifluoromethyl)-9H-pyrimido[4,5-b]indol-9-yl)acetyl)-N-(6-bromo-4-methoxypyridin-2-yl)-2-azabicyclo[3.1.0]hexane-3-carboxamide]
Cc1cc(C(F)(F)F)cc2c3c(N)ncnc3n(CC(=O)N3[C@@H]4C[C@@H]4C[C@H]3C(=O)Nc3cccc(OC(F)F)n3)c12 [Compound 345c, (1R,3S,5R)-2-(2-(4-amino-8-methyl-6-(trifluoromethyl)-9H-pyrimido[4,5-b]indol-9-yl)acetyl)-N-(6-(difluoromethoxy)pyridin-2-yl)-2-azabicyclo[3.1.0]hexane-3-carboxamide]
Cc1nc(C(F)(F)F)cc2c3c(N)ncnc3n(CC(=O)N3[C@@H]4C[C@@H]4C[C@H]3C(=O)Nc3cccc(Br)n3)c12 [Compound 346g, (1R,3S,5R)-2-(2-(4-amino-8-methyl-6-(trifluoromethyl)-9H-pyrido[4′,3′:4,5]pyrrolo[2,3-d]pyrimidin-9-yl)acetyl)-N-(6-bromopyridin-2-yl)-2-azabicyclo[3.1.0]hexane-3-carboxamide]
